Broadly, the IC50 is the concentration that inhibits the measured activity by half.

SMILES strings stand for the structures.

The experiment is described as follows: Cytotoxicity against HEK293 cells transfected with recombinant AOR by MTT assay. Background: Formazan colour is commonly taken as a measure of viable cells.
As for `CC1=CC2=C(C)C3(CC3)[C@](C)(O)C(=O)C2=C1`, the concentration for half-maximal inhibition (IC50) worked out at 5000 nM.
Consider `CC1=C(CO)C2=C(C)C3(CC3)[C@](C)(O)C(=O)C2=C1`, for which the IC50 worked out at 1420 nM.
The value for `CC1=CC2=C(C)C3(CC3)[C@@](C)(O)C(=O)C2=C1` [ACYLFULVENE] was 95 nM.
Next, `CC1=C(CO)C2=C(C)C3(CC3)[C@@](C)(O)C(=O)C2=C1` [IROFULVEN]: 55 nM.
